# Results published in patent US20260078133.
# Read-outs that look alike come from different tables or passages of the source.
# Conditions: ester bond, 18-membered ring, DCM
compound,measurement,setting,value
"tert-butyl ((1^2S,12S)-2^1-ethyl-2^2-(2-((S)-1-methoxyethyl)pyridin-3-yl)-4,4,10-trimethyl-7,11-dioxo-2^1H-6-oxa-9,10-diaza-1(4,2)-morpholina-2(5,3)-indolacyclotridecaphane-12-yl)carbamate","ring closure, isolated yield","EDCI/HOBT/DIEA, 6.5 mM",44%
CCn1c(-c2cc(N3CCN(C4CC4)CC3)cnc2[C@H](C)OC)c2c3cc(ccc31)-c1nnc(o1)C[C@H](NC(=O)OCc1ccccc1)C(=O)N1N[C@H](C(=O)OCC(C)(C)C2)C2CC1C2,"ring closure, isolated yield","from CCn1c(-c2cc(N3CCN(C4CC4)CC3)cnc2[C@H](C)OC)c(CC(C)(C)CO)c2cc(-c3nnc(C[C@H](NC(=O)OCc4ccccc4)C(=O)N4N[C@H](C(=O)O)C5CC4C5)o3)ccc21, PyBOP/DMAP, 6.6 mM, 16.0 h, 2 steps",29%
C=C[C@@H]1CCN2N[C@@H]1C(=O)OCC(C)(C)Cc1c(-c3cc(N4CCN(C(=O)OCc5ccccc5)CC4)cnc3[C@H](C)OC)n(CC)c3ccc(cc13)-c1csc(n1)C[C@H](NC(=O)OC(C)(C)C)C2=O,"ring closure, isolated yield","from C=C[C@@H]1CCN(C(=O)[C@H](Cc2nc(-c3ccc4c(c3)c(CC(C)(C)CO)c(-c3cc(N5CCN(C(=O)OCc6ccccc6)CC5)cnc3[C@H](C)OC)n4CC)cs2)NC(=O)OC(C)(C)C)N[C@@H]1C(=O)O, EDCI/HOBT/DIEA, 10.0 mM, 16.0 h",36.7%
CCn1c(-c2cc(N3CCN(C(=O)OCc4ccccc4)CC3)cnc2[C@H](C)OC)c2c3cc(ccc31)N1CCO[C@@H](C[C@H](NC(=O)OC(C)(C)C)C(=O)N3N[C@H](C(=O)OCC(C)(C)C2)C2CC3C2)C1,"ring closure, isolated yield","from CCn1c(-c2cc(N3CCN(C(=O)OCc4ccccc4)CC3)cnc2[C@H](C)OC)c(CC(C)(C)CO)c2cc(N3CCO[C@@H](C[C@H](NC(=O)OC(C)(C)C)C(=O)N4N[C@H](C(=O)O)C5CC4C5)C3)ccc21, PyBOP/DMAP, 9.8 mM, 35.0 °C, 0.5 h",16%
CCn1c(-c2cc(N3CCN(C)CC3)cnc2[C@H](C)OC)c2c3cc(ccc31)-c1csc(n1)C[C@H](NC(=O)OC(C)(C)C)C(=O)N1N[C@H](C(=O)OCC(C)(C)C2)C2CC1C2,"ring closure, isolated yield","from CCn1c(-c2cc(N3CCN(C)CC3)cnc2[C@H](C)OC)c(CC(C)(C)CO)c2cc(-c3csc(C[C@H](NC(=O)OC(C)(C)C)C(=O)N4N[C@H](C(=O)O)C5CC4C5)n3)ccc21, PyBOP/DMAP, 5.7 mM, 5.0 h",48.8%
CCn1c(-c2cccnc2[C@H](C)OC)c2c3cc(ccc31)N1CCO[C@@H](C[C@H](NC(=O)OC(C)(C)C)C(=O)N3N[C@H](C(=O)OCC(C)(C)C2)C2CC3C2)C1,"ring closure, isolated yield","from CCn1c(-c2cccnc2[C@H](C)OC)c(CC(C)(C)CO)c2cc(N3CCO[C@@H](C[C@H](NC(=O)OC(C)(C)C)C(=O)N4N[C@H](C(=O)O)C5CC4C5)C3)ccc21, PyBOP/DMAP, 2.6 mM, 16.0 h",96.2%
CCn1c(-c2cc(N3CCN(C4CC4)CC3)cnc2[C@H](C)OC)c2c3cc(ccc31)-c1csc(n1)C[C@H](NC(=O)OC(C)(C)C)C(=O)N(C)NCC(=O)OCC(C)(C)C2,"ring closure, isolated yield","from CCn1c(-c2cc(N3CCN(C4CC4)CC3)cnc2[C@H](C)OC)c(CC(C)(C)CO)c2cc(-c3csc(C[C@H](NC(=O)OC(C)(C)C)C(=O)N(C)NCC(=O)O)n3)ccc21, PyBOP/DMAP, 5.9 mM, 0.0 °C, 1.0 h",27%
CCn1c(-c2cc(N3CCN(C(=O)OCc4ccccc4)CC3)cnc2[C@H](C)OC)c2c3cc(ccc31)-c1csc(n1)C[C@H](NC(=O)OC(C)(C)C)C(=O)N1N[C@@H](C(=O)OCC(C)(C)C2)C2CC1C2,"ring closure, isolated yield","from CCn1c(-c2cc(N3CCN(C(=O)OCc4ccccc4)CC3)cnc2[C@H](C)OC)c(CC(C)(C)CO)c2cc(-c3csc(C[C@H](NC(=O)OC(C)(C)C)C(=O)N4N[C@@H](C(=O)O)C5CC4C5)n3)ccc21, EDCI/HOBT/DIEA, 5.2 mM, 35.0 °C, 16.0 h",49%
"benzyl-4-(5-((64S,4S)-4-((tert-butoxycarbonyl) amino)-11-ethyl-10,10-dimethyl-5,7-dioxo-11H-8-oxa-62,63-diaza-1 (5,3)-indola-6(2,4)-bicyclo[3.1.1]heptana-2(1,3)-benzenacycloundecaphane-12-yl)-6-((S)-1-methoxyethyl)pyridin-3-yl)piperazine-1-carboxylate","ring closure, isolated yield","EDCI/HOBT/DIEA, 6.0 mM",27%
CCn1c(-c2cc(N3CCN(C(=O)OCc4ccccc4)CC3)cnc2[C@H](C)OC)c2c3cc(ccc31)-c1csc(n1)C[C@H](NC(=O)OC(C)(C)C)C(=O)N(C)NCC(=O)OCC(C)(C)C2,"ring closure, isolated yield","from CCn1c(-c2cc(N3CCN(C(=O)OCc4ccccc4)CC3)cnc2[C@H](C)OC)c(CC(C)(C)CO)c2cc(-c3csc(C[C@H](NC(=O)OC(C)(C)C)C(=O)N(C)NCC(=O)O)n3)ccc21, EDCI/HOBT/DIEA, 4.3 mM, 16.0 h",38.2%
CCn1c(-c2cc(N3CCN(C)CC3)cnc2[C@H](C)OC)c2c3cc(ccc31)-c1csc(n1)C[C@H](NC(=O)OC(C)(C)C)C(=O)N(C)NCC(=O)OCC(C)(C)C2,"ring closure, isolated yield","from CCn1c(-c2cc(N3CCN(C)CC3)cnc2[C@H](C)OC)c(CC(C)(C)CO)c2cc(-c3csc(C[C@H](NC(=O)OC(C)(C)C)C(=O)N(C)NCC(=O)O)n3)ccc21, PyBOP/DMAP, 0.8 mM, 0.0 °C, 1.0 h",42%
